# Laboratory results reported in US8318954B2, “Cleavable carnitine compound” (Nou Life Sciences, Inc., priority 2006, dated 2012).
# Experiments:
# Type in all cases: in vivo
# C. elegans [1] = experiment: Thermal avoidance (TAV) 3 step dose response testing; details: for effects indicating increased sensory sensitivity: 0%, 6%, 12% laser intensity
# From the text: The present invention includes a series of compounds that may be useful for increasing sensory neuron function in certain human neuropathological conditions. C. elegans contains a number of sensory neurons which are responsible for detecting a variety of external stimuli. One such stimulus (heat) can be detected and quantified in C. elegans by the use of thermal avoidance (TAV) technology available through NemaRx. The goal of this experiment was to provide an initial characterization of the compounds via TAV. Specifically, it was asked whether any of these compounds can lead to an increase in the thermal stimulus-induced behavioral response measured by TAV. N2 strain C. elegans animals were used for this project, which have ‘normal’, i.e. wildtype, sensory neuron function. Four compounds were received by NemaRx for TAV testing. These compounds were:
# (§1) One 24 well microtiter plate was set up and incubated overnight on the shaker at 20 C. Each well on the plate was set up with 600 L3/L4-stage N2 animals in NGM with a 1:20 dilution of concentrated HB101 E. coli (food source) in a volume of 300 μl. Before the animal/HB101 solution was added, test compounds were pipetted into wells. For water controls and compound stocks/dilutions in water (DHLA, NAC) 6 μl was added to each well (1:50 dilutions). For DMSO controls and compound stocks/dilutions in DMSO (LA) 3 μl was added to each well (1:100 dilutions). No OD620 measurements were taken but the animals were visually scored after 19 h incubation.
# Dose Responses—setup: All of the wells from the 24 well plate were used for dose response testing and the entire well contents (600 animals) were used for each test. Prior to being placed on the agar plate for TAV testing each sample was processed as follows: • sample were transferred to glass tube containing 7 ml PBS • animals were allowed to settle for 5 minutes before most of the supernatant was removed (approx. 0.5 ml remaining in tube) • 7 ml PBS was then added, mixed and animals were allowed to settle for 5 minutes most of the supernatant was then removed • animals were removed and transferred to TAV testing plate (NRx Application pattern A) • plate was allowed to dry for 10 minutes (plate cover removed) and TAV testing was initiated. Per plate settings for the dose response experiments were as follows:
# Dose Responses—general notes on analysis: A response of the animals to a thermal stimulus (laser) which is applied to the head region can be detected both by a change in the direction of movement, as well as by a change in speed occurring within the test interval where the stimulus is applied. • direction of movement. […] Animals that show a strong change in the direction of movement, i.e. reversals, are classified as LR5 responders. […] LR5 responders show a thermal intensity-dependent increase in the speed of movement (starting off with less than <prelaser speed at low intensities up to > pre-laser speed at high intensities)
# The dose response experiments for the current project were carried out with 0% (background control), 6% and 12% settings of laser intensity. In practice, 6% is on the edge of laser intensity required to detect an increase in the number of LR5 responders. As such, 6% should be a useful intensity-setting to detect compound-induced increased sensitivity in the animals. The 12% setting was chosen because this intensity typically gives a robust increase in the number of LR5 responders.
# Total Responder speeds, ‘LR1 Responder speeds’ and ‘LR5 Responder speeds’ are shown as normalized speeds to allow better comparison between samples. For normalization purposes the average pre-laser speed is set at 1.0 and responder speeds are calculated relative to this value.
# One 24 well microtiter plate was set up and incubated overnight on the shaker at 20° C. Each well on the plate was set up with 600 L3/L4-stage N2 animals in NGM with a 1:20 dilution of concentrated HB101 E. coli (food source) in a volume of 300 μl. […]
# C. elegans [2] = experiment: Visual scoring of C. elegans after overnight incubation with compound in 24 well plate; details: for visual scoring of well clearance: L3/L4-stage N2 animals
# Description: as §1
# as §1, with “at 20°” for “at 20”, “For” for “For water controls and compound stocks/dilutions in water (DHLA, NAC) 6 μl was added to each well (1:50 dilutions). For”, “DMSO (LC)” for “DMSO (LA)”, “h incubation).” for “h incubation.”
# as §1, with “at 20°” for “at 20”, “For” for “For water controls and compound stocks/dilutions in water (DHLA, NAC) 6 μl was added to each well (1:50 dilutions). For”, “DMSO (LC)” for “DMSO (LA)”, “after 22” for “after 19”, “h incubation).” for “h incubation.”
# C. elegans [3] = experiment: Thermal avoidance (TAV) single intensity testing (6% laser intensity)
# Description: (§2) One 24 well microtiter plate was set up and incubated overnight on the shaker at 20° C. Each well on the plate was set up with 600 L3/L4-stage N2 animals in NGM with a 1:20 dilution of concentrated HB101 E. coli (food source) in a volume of 300 μl. Before the animal/HB101 solution was added, test compounds were pipetted into wells. 3 μl each for the DMSO controls and LA dilutions were added to each well (1:100 dilutions). Controls and LA dilutions were done in triplicate (total of 9 wells).
# 6% Response tests—setup: All 9 wells from the 24 well plate were used for 6% testing and the entire well contents (600 animals) were used for each test. Prior to being placed on the agar plate for TAV testing each sample was processed as described for ‘Dose Responses’.
# Dose Responses—general notes on analysis: Analysis similar as described in ‘Dose Responses’. In addition, ‘Response ratios’ as well as ‘A Speed responses’ both give measures of how much individual animals changed speed in response to the stimulus (additional information available upon request).
# as §2, with “wells. 6” for “wells. 3”, “the water” for “the DMSO”, “and compound” for “and LA”, “well (1:50” for “well (1:100”, “of 15” for “of 9”
# 6% Response tests—setup: All 15 wells from the 24 well plate were used for 6% testing) and the entire well contents (600 animals) were used for each test. Prior to being placed on the agar plate for TAV testing each sample was processed as described for ‘Dose Responses’.
# as §2, with “LC” for “LA”
# [4] = even at highest concentration 2 mM (LC)
Compound,effects indicating increased sensory sensitivity (C. elegans [1]; even at highest non-toxic concentration of 2 mM),speed of LR1 responders (C. elegans [1]; LA3 dilution),"percentage of LR5 responders (C. elegans [1]; dilutions LA4, LA5 and LA6, similar to the last DMSO control)","toxicity evident from 'Frames viewed' and 'Average Speeds' (C. elegans [1]; two highest LA concentrations (LA1, LA2))","visual scoring of well clearance (C. elegans [2]; LA1, 10 mM final concentration in well, 19 h incubation)","visual scoring of well clearance (C. elegans [2]; LA2, 5 mM final concentration in well, 19 h incubation)",effects indicating increased sensory sensitivity (C. elegans [3]; 2 mM or 1 mM),effects indicating increased sensory sensitivity (C. elegans [1]; [4]),"visual scoring (toxicity) (C. elegans [2]; LC, 22 h incubation)","visual scoring (toxicity) (C. elegans [2]; all LC dilutions LC1-LC6 (up to 2 mM), 19 h incubation)",effects indicating increased sensory sensitivity (C. elegans [3]; [4])
"O=C(O)CCCCC1CCSS1 (centres unmarked) [LA, Lipoic acid]",No obvious effects detected,relatively low,relatively high,toxicity is observed,most bacteria remaining,some bacteria remaining,No effects detected,,,,
Acetyl-L-Carnitine-Lipoic acid conjugate [LC Conjugate],,,,,,,,No obvious effects detected,no toxicity observed,no toxicity observed,No obvious effects detected
